Reference: article PMC3321071 (Bioorganic & medicinal chemistry letters, 2012)

The substances below were run on gp41-mediated cell–cell fusion (assay: cell–cell fusion). Details: read-out: IC50 in CCF assay.
Type: cell-based, HIV-1

Question: H2N-Trp-[Trp]-Leu-OH was tested. Which IC50 did it give?
Answer: 5 µM

Question: With H2N-TyrMe-[Trp]-Trp-OH as the substance, how does the IC50 read?
Answer: 6 to 8 µM

Question: For H2N-Asn-[Trp]-Trp-OH, which IC50 is on record?
Answer: 6 to 8 µM
